Patent publication US6869929B2, “Use of transcription factors for treating inflammation and other diseases” (Beth Israel Deaconess Medical Center, priority 2000, dated 2005)

Assays:
Format in all cases: cell-based, human
ESE-1 promoter = ESE-1 promoter luciferase construct (pXP2/ESE-1) transfection; settings: U-138 MG cells; 16 h
Method: Cotransfections of 3-8×10^5 cells were carried out with 600 ng reporter gene construct DNA and 200 ng expression vector DNA using LipofectAMINE PLUS (Gibco-BRL) for 16 hours as described (Oettgen, P., et al. et al., 1997, Mol Cell Biol 17:4419-33). Transfections were performed independently in duplicate and repeated 3 to 4 times with different plasmid preparations with similar results.
To investigate the molecular mechanism by which IL-1 β and LPS regulate ESE-1 expression, we examined the response of an ESE-1 promoter luciferase construct after transfection using two cytokine responsive non-epithelial cell types, U-138 MG human glial cells and RAW 264.7 cells, a murine macrophage cell line (Oettgen, P., et al. 1999, Genomics 55:358-62). Whereas the parental pXP2 vector was not stimulated by IL-1β, in U-138 MG cells, IL-1β increased ESE-1 promoter activity up to 5-fold (FIG. 12a). Similarly, LPS enhanced ESE-1 promoter activity ˜9-fold in RAW 264.7 cells (FIG. 12b).

ESE-1 [1] = experiment: ESE-1 mRNA RT-PCR in glioma cells (U-138 MG, U-373 MG); settings: U-138 MG and U-373 MG glioma cells
Method: (§1) U-87 Mg and U-138 Mg (human glioma), THP-1 (human monocytic), RAW 264.7 (murine monocytic), LB-12 (human osteoblast-like large T antigen transformed bone marrow stromal cells), and human chondrocytes were grown and treated with cytokines as described (Apperley, J., et al. 1990. J Bone Mineral Res. 5:S93; Goldring, M. B., et al. 1994. J Clin Invest 94:2307-16; Goldring, S. R., et al. 1983. J Bone Joint Surg 65:575-84; Libermann, T. A., et al. 1987. Embo J. 6:1627-1632).
(§2) cDNAs were generated from 1 μg of total RNA using Ready-To-Go™ You-prime First-Strand Beads (Amersham Pharmacia Biotech Inc). RT-PCR amplifications of 0.1 μg cDNA were carried out using a MJResearch thermal cycler PTC-100 as follows: 5 min at 94° C., 20-37 cycles of 30 sec at 94° C., 30 sec at 56° C., and 30 sec at 72° C., followed by 5 min at 72° C. (Oettgen, P., et al. 2000, J Biol Chem 275:1216-25). The sequences of the human ESE-1 primers and the primers for human GAPDH were as described (Oettgen, P., et al. 1999, J Biol Chem 274:29439-52).
U-138 MG cells were infected with the IκB adenovirus (kindly provided by Fionula Brennan) (Bondeson, J., et al. 1999, Proc Natl Acad Sci U S A 96:5668-73) for 1 hour in serum-free medium using a multiple of infection of 1000. After infection the cells were washed with medium and incubated for 16 hours in DMEM containing 10% fetal calf serum in the absence or presence of IL-1β. […]

ESE-1 [2] = experiment: ESE-1 mRNA RT-PCR in immortalized chondrocytes T/C28a2, C28/I2, C20/A4; settings: T/C28a2, C28/I2 and C20/A4 chondrocytes; 24 hours
Method: as §1, §2
To test the hypothesis that ESE-1 is a mediator of cytokine responses in non-epithelial cell types, we analyzed ESE-1 expression in response to a variety of cytokines in several connective tissue cell types. Immortalized human chondrocytes, T/C28a2, C28/I2, and C20/A4 (Goldring, M. B., et al. 1994, J Clin Invest 94:2307-16), were stimulated with IL-1β, TNF-α and IFN-γ for 24 hours. […] The kinetics of ESE-1 induction was explored in a time course experiment with T/ C28a2 chondrocytes.

ESE-1 [3] = experiment: ESE-1 mRNA RT-PCR in RA synovial fibroblasts; settings: 4th passage RA synovial fibroblasts
Method: Tissues from patients with rheumatoid arthritis (RA) were obtained as discarded materials from total joint replacement surgery or synovectomy. RA synovial tissue samples were cultured for the generation of adherent synovial fibroblasts. Dispersed synovial tissues were prepared by a previously published method (Goldring, S. R., et al. 1983. The synovial-like membrane at the bone-cement interface in loose total hip replacements and its proposed role in bone lysis. J Bone Joint Surg 65:575-84). Cells were subjected to 2-4 passages and stimulated with IL-1β (R&D Systems) at 100 pg/ml or with TNF-α (R&D Systems) at 5 ng/ml.
as §2
The synovium in RA is comprised of heterogeneous cell populations including monocyte/macrophages, lymphocytes and synovial fibroblasts. To evaluate whether ESE-1 expression in synovial fibroblasts is regulated by proinflammatory cytokines, 4th passage synovial fibroblasts isolated from RA synovium were stimulated for different times with IL-1β in the absence or presence of indomethacin. […] They also indicate that cytokine-induced prostaglandins may modulate steady state ESE-1 mRNA levels. […] We, therefore, focused our attention in further studies on IL-1β.

ESE-1 [4] = experiment: ESE-1 mRNA Northern blot in LB-12 osteoblasts; settings: LB-12 cells; 1, 2, 6, 24 hours
Method: as §1
Total RNA was harvested using QIAshreder (Qiagen) and RNeasy® Mini Kit (Quiagen) or Trizol (Gibco BRL). Poly A^+ RNA was prepared with MicroPoly(A) Pure (Ambion). Northern blots (5 μg total RNA) were hybridized using a full length ESE-1 cDNA probe as described (Oettgen, P., et al. et al. 1997, Mol Cell Biol 17:4419-33.).
Osteoblasts, the bone cells responsible for bone formation, represent another connective tissue cell target of inflammatory cytokines in joint disorders (Bogoch, E. R., and E. Moran. 1998, Can J Surg 41:264-71). […] LB-12 cells were incubated for different times in the absence or presence of IL-1β. […] Since the rapid, but transient induction of ESE-1 resembles that of immediate early genes, we tested the effect of the protein synthesis inhibitor cycloheximide which superinduces expression of certain genes due to mRNA stabilization. Cycloheximide alone had no effect, but superinduced IL-1β-mediated ESE-1 mRNA expression (FIG. 11d).

increase in ESE-1 promoter activity (ESE-1 promoter): up to 5 fold
Substance: IL-1β: interleukin-1 beta, proinflammatory cytokine
ESE-1 expression (ESE-1 [1]): rapidly induced transient expression
ESE-1 expression (ESE-1 [2]): induced ESE-1 expression in all chondrocyte cell lines
ESE-1 mRNA expression, agent alone (ESE-1 [3]): strongly induced transient ESE-1 expression
ESE-1 mRNA expression, agent alone (ESE-1 [4]): rapidly induced
